Laboratory results taken from PubChem BioAssay (NCI).
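These data come from cells grown in 96-well plates and exposed to compound for 48 hours at five concentrations. GI50 = concentration required for 50% inhibition of growth. At the TGI there is no net growth.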

Legend:
Assay in all cases: inhibition of tumour cell growth, NCI panel, 48 h
HT29 colon = test system: HT29 colon
SN12C renal = test system: SN12C renal
CCRF-CEM leukemia = test system: CCRF-CEM leukemia
SK-MEL-2 melanoma = test system: SK-MEL-2 melanoma
MCF7 breast = test system: MCF7 breast
OVCAR-5 ovarian = test system: OVCAR-5 ovarian
IGROV1 ovarian = test system: IGROV1 ovarian
RPMI-8226 leukemia = test system: RPMI-8226 leukemia
HS 578T breast = test system: HS 578T breast
SK-OV-3 ovarian = test system: SK-OV-3 ovarian
MDA-MB-435 = test system: MDA-MB-435
PC-3 prostate = test system: PC-3 prostate
HOP-62 NSCLC = test system: HOP-62 NSCLC
NCI/ADR-RES ovarian = test system: NCI/ADR-RES ovarian
CAKI-1 renal = test system: CAKI-1 renal
HL-60(TB) leukemia = test system: HL-60(TB) leukemia
HCT-116 colon = test system: HCT-116 colon
BT-549 breast = test system: BT-549 breast
MOLT-4 leukemia = test system: MOLT-4 leukemia
786-0 renal = test system: 786-0 renal
OVCAR-3 ovarian = test system: OVCAR-3 ovarian
U251 CNS = test system: U251 CNS
SK-MEL-28 melanoma = test system: SK-MEL-28 melanoma
UACC-62 melanoma = test system: UACC-62 melanoma
M14 melanoma = test system: M14 melanoma
SF-539 CNS = test system: SF-539 CNS
EKVX NSCLC = test system: EKVX NSCLC
OVCAR-4 ovarian = test system: OVCAR-4 ovarian
OVCAR-8 ovarian = test system: OVCAR-8 ovarian

`CN1CCN(Cc2ccc(NC(=O)c3cncc(C#Cc4cnc5[nH]ncc5c4)c3)cc2C(F)(F)F)CC1` showed a GI50 (HT29 colon) of 1.23 µM, a TGI (HT29 colon) of 13.7 µM and a GI50 (SN12C renal) of 1.82 µM. For the same compound, the TGI (SN12C renal) was 11.4 µM, the GI50 (CCRF-CEM leukemia) was 3.64 µM and the TGI (CCRF-CEM leukemia) was 66.6 µM. It also gave a GI50 (SK-MEL-2 melanoma) of 0.535 µM, a TGI (SK-MEL-2 melanoma) of 2.78 µM and a GI50 (MCF7 breast) of 3.9 µM. The TGI (MCF7 breast) was 18.5 µM, the GI50 (OVCAR-5 ovarian) was 3.24 µM and the TGI (OVCAR-5 ovarian) was 17.4 µM. For the same compound, the GI50 (IGROV1 ovarian) was 0.685 µM, the TGI (IGROV1 ovarian) was 13.1 µM and the GI50 (RPMI-8226 leukemia) was 4.03 µM. For the same compound, the TGI (RPMI-8226 leukemia) was 50.3 µM, the GI50 (HS 578T breast) was 1.27 µM and the TGI (HS 578T breast) was 13.9 µM. The GI50 (SK-OV-3 ovarian) was 1.79 µM, the TGI (SK-OV-3 ovarian) was 13.5 µM and the GI50 (MDA-MB-435) was 1.22 µM. The TGI (MDA-MB-435) was 14.5 µM, the GI50 (PC-3 prostate) was 3.7 µM and the TGI (PC-3 prostate) was 60.9 µM. The GI50 (HOP-62 NSCLC) was 4.06 µM, the TGI (HOP-62 NSCLC) was 16.6 µM and the GI50 (NCI/ADR-RES ovarian) was 7.07 µM. The TGI (NCI/ADR-RES ovarian) was 42.1 µM, the GI50 (CAKI-1 renal) was 0.52 µM and the TGI (CAKI-1 renal) was 10.9 µM. The GI50 (HL-60(TB) leukemia) was 0.695 µM, the TGI (HL-60(TB) leukemia) was 13.2 µM and the GI50 (HCT-116 colon) was 0.737 µM. For the same compound, the TGI (HCT-116 colon) was 12.8 µM, the GI50 (BT-549 breast) was 3.81 µM and the TGI (BT-549 breast) was 16.7 µM. For the same compound, the GI50 (MOLT-4 leukemia) was 1.81 µM, the TGI (MOLT-4 leukemia) was 22.4 µM and the GI50 (786-0 renal) was 3.55 µM. The TGI (786-0 renal) was 27 µM, the GI50 (OVCAR-3 ovarian) was 3.04 µM and the TGI (OVCAR-3 ovarian) was 16.5 µM. It also gave a GI50 (U251 CNS) of 4.36 µM, a TGI (U251 CNS) of 25.4 µM and a GI50 (SK-MEL-28 melanoma) of 1.7 µM. It also gave a TGI (SK-MEL-28 melanoma) of 8.66 µM, a GI50 (UACC-62 melanoma) of 1.09 µM and a TGI (UACC-62 melanoma) of 5.56 µM. The GI50 (M14 melanoma) was 0.524 µM, the TGI (M14 melanoma) was 6.6 µM and the GI50 (SF-539 CNS) was 0.925 µM. The TGI (SF-539 CNS) was 4.99 µM, the GI50 (EKVX NSCLC) was 2.72 µM and the TGI (EKVX NSCLC) was 18 µM. It also gave a GI50 (OVCAR-4 ovarian) of 3.03 µM, a TGI (OVCAR-4 ovarian) of 25.8 µM and a GI50 (OVCAR-8 ovarian) of 4.26 µM. The TGI (OVCAR-8 ovarian) was 20.3 µM.
